Laboratory results published in patent US20240398773A1, “COMPOSITIONS COMPRISING OTESECONAZOLE” (Mycovia Pharmaceuticals, Inc., priority 2021, published 2024).
Where two headings read alike, the source gives them in different places. Marks after values point to notes of the source that are not given here.

Legend:
[1] = Phase 2a acute VVC study, safety; format: in vivo, human; conditions: administered for 3 days
Experimental: Oteseconazole has previously been evaluated in a Phase 2a multi-center, randomized, double-blind, active-controlled, parallel-group, dose-ranging study in patients with moderate-to-severe acute VVC. A total of 55 subjects with moderate-to-severe acute VVC (severity score ≥6 and a positive fungal KOH test) participated in the study across 4 dose groups: 1) oteseconazole 300 mg qd for 3 days: 2) 600 mg qd for 3 days: 3) 600 mg bid for 3 days; or 4) a single dose of fluconazole 150 mg followed by matching placebo. […] No safety signals of clinical concern were observed from the safety assessments.

[2] = Physicochemical and biological properties of drug substance
From the text: As a BCS Class IIc drug, it may be anticipated that dissolution may be dependent upon the drug substance particle size. (Tsume et al., 2014). Micronization of the drug substance provided a means to deliver drug substance with a small and consistent particle size. A discriminatory dissolution method was developed to show the effect of drug substance particle size on dissolution to help ensure product quality. […] A high shear wet granulation process was developed to densify the product, and improve its flow to enable manufacturing, while maintaining good dissolution from the formulation.

[3] = Study CL-001 single-dose escalation in healthy subjects, plasma PK; format: in vivo, human; conditions: for Tmax / Vd/F / half-life / Cmax / AUC(0-inf): both sexes, human, plasma
Experimental: Study Oteseconazole CL-001 (hereafter referenced as “CL-001”) was a single-center, Phase 1, double-blind, randomized, placebo-controlled, dose-escalating study in healthy adult subjects.
Sixty-four subjects (43 males and 21 females) between 18 and 55 years of age were enrolled in 8 dose groups. Within each dose group, 6 subjects received oteseconazole and 2 subjects received placebo. In the first 7 cohorts, escalating single oral doses (5, 10, 20, 40, 80, 160, or 320 mg) were administered in the fasted state using 2.5, 20, or 60 mg capsules of oteseconazole or matching placebo. An eighth cohort received a single 320 mg oral dose of oteseconazole or matching placebo after ingesting a high-fat breakfast. Subjects in Cohorts 1 through 6 were followed for 14 days for safety and PK assessments. Visits on Days 28 and 42 were added for Cohorts 7 and 8. Dose escalation proceeded only after safety and PK of the previous dose were determined.
The PK analysis was based on concentration-time data from 36 subjects who received active oteseconazole at doses between 20 mg and 320 mg. The majority of the oteseconazole plasma concentrations in Cohort 1 (5 mg) and Cohort 2 (10 mg) were below the limit of quantification (<20 ng/mL); therefore, no PK analysis could be conducted on these subjects.

Study CL-004 plasma PK = format: in vivo, human; conditions: for concentration at 24 h / concentration at 168 day / half-life / Tmax / Cmax / AUC(0-t): human, plasma; for concentration at 24 h: read-out: predicted minimum concentration (Cmin) at 24 hours after the final Day 3 dose; for half-life: read-out: median t1/2 (converted); for Tmax: read-out: median Tmax; for AUC(0-t): read-out: AUC0-8
Experimental: The ty, values were estimated on the basis of blood sampling that was carried out between approximately 7 and 168 days after administration of the first dose. […] The oteseconazole concentrations on Day 168 remained measurable (127, 409, and 1300 ng/mL for the 300 mg QD, 600 mg QD, and 600 mg BID treatment groups, respectively) and remained at or above therapeutic concentrations for the 600 mg QD and 600 mg BID treatment groups.
Based on the calculated Cmin values, only about 50% of the target was met for the 300 mg QD and 600 mg QD treatment groups, with the 600 mg BID treatment group reaching the target anticipated for the 600 mg QD group.

[4] = Study CL-012 plasma concentrations; format: in vivo; conditions: human
Experimental: Oteseconazole mean (SD) plasma concentration increased with dosing for 12 weeks, reaching a maximum concentration of 3605.8 (1518.08) μg/L at Week 12. At the end of dosing, there was a slow decrease in oteseconazole plasma concentration, reaching 1122.0 (656.14) μg/L by Week 48 (FIG. 5). Following the loading dose regimen of 150 mg oteseconazole QD for 7 days, the mean (SD) oteseconazole plasma concentration at Day 14 was 1785.5 (747.75) μg/L.

acute VVC episodes = test: Study CL-017 efficacy versus fluconazole, acute VVC episodes; format: in vivo, human
[5] = Cohort 4, single oral 40 mg, fasted, mean
[6] = Cohort 5, single oral 80 mg, fasted, mean
[7] = Cohort 6, single oral 160 mg, fasted, mean
[8] = Cohort 7, single oral 320 mg, Fasted, mean
[9] = Cohort 8, single oral 320 mg, Fed (high-fat breakfast), mean
[10] = po, 40 mg, Cohort 4, single oral 40 mg, fasted, mean
[11] = po, 80 mg, Cohort 5, single oral 80 mg, fasted, mean
[12] = po, 160 mg, Cohort 6, single oral 160 mg, fasted, mean
[13] = po, 320 mg, Cohort 7, single oral 320 mg, Fasted, mean
[14] = po, 320 mg, Cohort 8, single oral 320 mg, Fed (high-fat breakfast), mean
[15] = 300 mg, 300 mg QD treatment group
[16] = 600 mg, 600 mg BID treatment group
[17] = 600 mg, 600 mg QD treatment group

Structure (SMILES): O[C@@](Cn1cnnn1)(c1ccc(F)cc1F)C(F)(F)c1ccc(-c2ccc(OCC(F)(F)F)cc2)cn1 [Oteseconazole, oteseconazole]
- serious adverse events [1]: no serious adverse events
- safety and tolerability ([1]; 300 mg qd to 600 mg bid): safe and well tolerated
- BCS class [2]: BCS Class IIc
- hygroscopicity [2]: slightly hygroscopic
- stability to light [2]: stable in the presence of light
- solubility ([2]; BCS classification): low solubility
- chemical stability ([2]; alone and formulated into a drug product): excellent chemical stability
- bulk density ([2]; micronized drug substance): approximately 0.2 g/mL
- ionization ([2]; pH range of the gastrointestinal tract): unionized throughout the pH range of the gastrointestinal tract
- plasma concentrations with standard high-fat meal versus fasted state ([3]; 320 mg, Cohort 8 versus Cohort 7): higher plasma concentrations
- plasma concentrations (majority below the limit of quantification) ([3]; Cohort 1 (5 mg) and Cohort 2 (10 mg)): < 20 ng/mL
- Tlag ([3]; Cohort 3, single oral 20 mg, fasted, mean): 1.84 h
- CL/F ([3]; Cohort 3, single oral 20 mg, fasted, mean, N = 5): 1.39 ^a L/h
- CL/F [3, 5]: 1.30 L/h
- Tlag [3, 5]: 1.58 h
- CL/F [3, 6]: 1.08 L/h
- Tlag [3, 6]: 1.17 h
- CL/F [3, 7]: 1.67 L/h
- Tlag [3, 7]: 0.75 h
- CL/F [3, 8]: 1.35 L/h
- Tlag [3, 8]: 0.67 h
- CL/F [3, 9]: 0.406 L/h
- Tlag [3, 9]: 1.25 h
- Tmax ([3]; oral, 4 hours at 80 mg to 10 hours at 40 mg, read-out: Median Tmax, range over doses): 4 to 10 h
- Vd/F ([3]; oral, all cohorts, read-out: Vz/F, range of cohort averages): 696 to 1650 L
- half-life ([3]; po, 20 mg, Cohort 3, single oral 20 mg, fasted, N = 5): 393 h
- Cmax ([3]; po, 20 mg, Cohort 3, single oral 20 mg, fasted, mean): 44.7 ng/mL
- AUC(0-inf) ([3]; po, 20 mg, Cohort 3, single oral 20 mg, fasted, mean, N = 5): 16100 ng·h/mL
- Vd/F ([3]; po, 20 mg, Cohort 3, single oral 20 mg, fasted, mean, N = 5, read-out: Vz/F): 696 L
- Tmax ([3]; po, 20 mg, Cohort 3, single oral 20 mg, fasted, median, read-out: Tmax): 5.03 h
- half-life ([3]; po, 40 mg, Cohort 4, single oral 40 mg, fasted): 548 h
- AUC(0-inf) [3, 10]: 35000 ng·h/mL
- Cmax [3, 10]: 79.7 ng/mL
- Vd/F ([3]; po, 40 mg, Cohort 4, single oral 40 mg, fasted, mean, read-out: Vz/F): 939 L
- Tmax ([3]; po, 40 mg, Cohort 4, single oral 40 mg, fasted, median, read-out: Tmax): 10 h
- half-life ([3]; po, 80 mg, Cohort 5, single oral 80 mg, fasted): 536 h
- AUC(0-inf) [3, 11]: 84600 ng·h/mL
- Cmax [3, 11]: 165 ng/mL
- Vd/F ([3]; po, 80 mg, Cohort 5, single oral 80 mg, fasted, mean, read-out: Vz/F): 761 L
- Tmax ([3]; po, 80 mg, Cohort 5, single oral 80 mg, fasted, median, read-out: Tmax): 4.01 h
- half-life ([3]; po, 160 mg, Cohort 6, single oral 160 mg, fasted): 618 h
- AUC(0-inf) [3, 12]: 109000 ng·h/mL
- Cmax [3, 12]: 180 ng/mL
- Vd/F ([3]; po, 160 mg, Cohort 6, single oral 160 mg, fasted, mean, read-out: Vz/F): 1400 L
- Tmax ([3]; po, 160 mg, Cohort 6, single oral 160 mg, fasted, median, read-out: Tmax): 6 h
- half-life ([3]; po, 320 mg, Cohort 7, single oral 320 mg, Fasted): 873 h
- AUC(0-inf) [3, 13]: 242000 ng·h/mL
- Cmax [3, 13]: 338 ng/mL
- Vd/F ([3]; po, 320 mg, Cohort 7, single oral 320 mg, Fasted, mean, read-out: Vz/F): 1650 L
- Tmax ([3]; po, 320 mg, Cohort 7, single oral 320 mg, Fasted, median, read-out: Tmax): 5 h
- half-life ([3]; po, 320 mg, Cohort 8, single oral 320 mg, Fed (high-fat breakfast)): 1470 h
- AUC(0-inf) [3, 14]: 953000 ng·h/mL
- Cmax [3, 14]: 988 ng/mL
- Vd/F ([3]; po, 320 mg, Cohort 8, single oral 320 mg, Fed (high-fat breakfast), mean, read-out: Vz/F): 741 L
- Tmax ([3]; po, 320 mg, Cohort 8, single oral 320 mg, Fed (high-fat breakfast), median, read-out: Tmax): 6 h
- share of target Cmin met (Study CL-004 plasma PK; 300 mg QD and 600 mg QD treatment groups): about 50%
- concentration at 24 h (Study CL-004 plasma PK; 300 mg, 300 mg QD dose group): 705 ng/mL
- concentration at 168 day (Study CL-004 plasma PK; [15]): 127 ng/mL
- half-life (Study CL-004 plasma PK; [15]): 75.9 days
- concentration at 24 h (Study CL-004 plasma PK; 600 mg, 600 mg BID dose group): 2830 ng/mL
- concentration at 168 day (Study CL-004 plasma PK; [16]): 1300 ng/mL
- half-life (Study CL-004 plasma PK; [16]): 160 days
- concentration at 24 h (Study CL-004 plasma PK; 600 mg, 600 mg QD dose group): 1000 ng/mL
- concentration at 168 day (Study CL-004 plasma PK; [17]): 409 ng/mL
- half-life (Study CL-004 plasma PK; [17]): 133 days
- Tmax (Study CL-004 plasma PK; 300 mg dose): 4 h
- Tmax (Study CL-004 plasma PK; 600 mg dose): 5.5 h
- Cmax (Study CL-004 plasma PK; Day 1, 300 mg dose): 407 ng/mL
- AUC(0-t) (Study CL-004 plasma PK; Day 1, 300 mg dose): 1870 ng·h/mL
- Cmax (Study CL-004 plasma PK; Day 1, 600 mg dose): 968 ng/mL
- AUC(0-t) (Study CL-004 plasma PK; Day 1, 600 mg dose): 4230 ng·h/mL
- concentration at 12 week ([4]; 150 mg, Week 12, maximum concentration, read-out: mean (SD) plasma concentration): 3610 ng/mL
- concentration at 48 week ([4]; 150 mg, Week 48, read-out: mean (SD) plasma concentration): 1120 ng/mL
- concentration at 14 day ([4]; Day 14, after loading 150 mg QD for 7 days, read-out: mean (SD) plasma concentration): 1790 ng/mL
- efficacy of enhanced loading dose compared with fluconazole (acute VVC episodes; 600 mg Day 1 and 450 mg Day 2 versus fluconazole three 150 mg doses 72 hours apart): noninferior to fluconazole
- average percentage of subjects with 1 or more culture-verified acute VVC episodes (acute VVC episodes; including subjects who had a recurrence during the Induction Phase): 5.1%
